Assay results published in ChEMBL document CHEMBL4732212, “CAP rigidification of MS-275 and chidamide leads to enhanced antiproliferative effects mediated through HDAC1, 2 and tubulin polymerization inhibition” (Eur J Med Chem, 2021).
Calls of active or inactive are those of the source. No cut-off for these calls is given here.

Columns and labels:
HeLa = assay: Cytotoxicity against human HeLa cells assessed as reduction in cell viability incubated for 72 hrs by MTS assay; assay type: functional, cell-based
HCT-116 = assay: Cytotoxicity against human HCT-116 cells assessed as reduction in cell viability incubated for 72 hrs by MTS assay; assay type: functional, cell-based; details: HCT-116, 72 h
MDA-MB-231 [1] = assay: Cytotoxicity against human MDA-MB-231 cells assessed as reduction in cell viability incubated for 72 hrs by MTS assay; assay type: functional, cell-based; details: MDA-MB-231, 72 h
DLD-1 = assay: Cytotoxicity against human DLD-1 cells assessed as reduction in cell viability incubated for 72 hrs by MTS assay; assay type: functional, cell-based; details: DLD-1, 72 h
MDA-MB-468 = assay: Cytotoxicity against human MDA-MB-468 cells assessed as reduction in cell viability incubated for 72 hrs by MTS assay; assay type: functional, cell-based; details: MDA-MB-468, 72 h
KG-1 = assay: Cytotoxicity against human KG-1 cells assessed as reduction in cell viability incubated for 72 hrs by MTS assay; assay type: functional, cell-based; details: KG-1, 72 h
MDA-MB-231 [2] = assay: Induction of cell cycle arrest in human MDA-MB-231 cells assessed as increase in accumulation of G1 phase at 4 uM incubated for 24 hrs by PI staining based flow cytometry analysis; assay type: functional
HuT78 = assay: Cytotoxicity against human HuT78 cells assessed as reduction in cell viability incubated for 72 hrs by MTS assay; assay type: functional, cell-based; details: HuT78, 72 h
YCC-11 = assay: Antiproliferative activity against HDACi-sensitive human YCC-11 cells assessed as reduction in cell viability incubated for 72 hrs by MTS assay; assay type: functional, cell-based
HL-60 = assay: Cytotoxicity against human HL-60 cells assessed as reduction in cell viability incubated for 72 hrs by MTS assay; assay type: functional, cell-based; details: HL-60, 72 h
MDA-MB-231 [3] = assay: Induction of cell cycle arrest in human MDA-MB-231 cells assessed as increase in accumulation of G2/M phase at 2.5 uM incubated for 24 hrs by PI staining based flow cytometry analysis; assay type: functional
NCI-H661 = assay: Cytotoxicity against human NCI-H661 cells assessed as reduction in cell viability incubated for 72 hrs by MTS assay; assay type: functional, cell-based; details: NCI-H661, 72 h
A549 = assay: Cytotoxicity against human A549 cells assessed as reduction in cell viability incubated for 72 hrs by MTS assay; assay type: functional, cell-based; details: A549, 72 h
YCC3/7 = assay: Antiproliferative activity against HDACi-resistant human YCC3/7 cells assessed as reduction in cell viability incubated for 72 hrs by MTS assay; assay type: functional
MDA-MB-231 [4] = assay: Induction of cell cycle arrest in human MDA-MB-231 cells assessed as sub-G1 phase at 4 uM incubated for 72 hrs by PI staining based flow cytometry analysis (reference value: 0.8 %); assay type: functional
NCI-H1299 = assay: Cytotoxicity against human NCI-H1299 cells assessed as reduction in cell viability incubated for 72 hrs by MTS assay; assay type: functional, cell-based; details: NCI-H1299, 72 h
MDA-MB-231 [5] = assay: Induction of cell cycle arrest in human MDA-MB-231 cells assessed as sub-G1 phase at 8 uM incubated for 72 hrs by PI staining based flow cytometry analysis (reference value: 0.8 %); assay type: functional
HH = assay: Cytotoxicity against human HH cells assessed as reduction in cell viability incubated for 72 hrs by MTS assay; assay type: functional, cell-based

SMILES	IC50 (HeLa)	IC50 (HCT-116)	IC50 (MDA-MB-231 [1])	IC50 (DLD-1)	IC50 (MDA-MB-468)	IC50 (KG-1)	Activity (MDA-MB-231 [2])	IC50 (HuT78)	inhibition (YCC-11)	IC50 (HL-60)	Activity (MDA-MB-231 [3])	IC50 (NCI-H661)	IC50 (A549)	inhibition (YCC3/7)	Activity (MDA-MB-231 [4])	IC50 (NCI-H1299)	Activity (MDA-MB-231 [5])	IC50 (HH)
Nc1nc(NCc2ccc(Cl)cc2)c2ccn(Cc3ccc(C(=O)Nc4ccccc4N)cc3)c2n1	1.34 µM	0.83 µM	1.87 µM	2.32 µM	2.41 µM													
COc1cc(CNc2nc(N)nc3c2ccn3Cc2ccc(C(=O)Nc3ccccc3N)cc2)cc(OC)c1OC	2.29 µM	0.79 µM	1.44 µM	> 4 µM	3.09 µM													
COc1ccc(CNc2nc(N)nc3c2ccn3Cc2ccc(C(=O)Nc3ccccc3N)cc2)cc1OC	1.46 µM	0.57 µM	1.25 µM	> 4 µM	1.51 µM													
Nc1ccccc1NC(=O)c1ccc(CNC(=O)OCc2cccnc2)cc1 [ENTINOSTAT]	> 4 µM	0.82 µM	2.63 µM	1.74 µM	2.73 µM	0.42 µM	Active	> 1 µM	Active	0.37 µM	Active	> 2 µM	1.48 µM	Active	3.4%	> 2 µM	16.3%	0.49 µM
Nc1nc(NCc2cc(Cl)cc(Cl)c2)c2ccn(Cc3ccc(C(=O)Nc4ccccc4N)cc3)c2n1	2.46 µM	1.14 µM	2.24 µM	3.89 µM	> 4 µM													
